Read-outs that look alike come from different tables or passages of the source.
Key:
[1] = rabbit sclera
Procedure: (§1) FIG. 1 schematically depicts the setup employed to carry out human epidermal membrane (HEM) iontophoretic experiments described below. Scleral experiments were conducted using a simple side-by-side diffusion apparatus known to one of ordinary skill in the art. Conductive silver paint was purchased from Ladd Research Technologies (Williston, Vt.) and silver foil from EM-Science (Gibbstown, N.J.). Silver chloride powder, phosphate buffered saline (PBS, pH 7.4) tablets were purchased from Sigma (St. Louis, Mo.). ^14C-sodium salicylate was purchased from ARC (St. Louis, Mo.) and non-radiolabeled sodium salicylate from Sigma. Ultimate Gold® scintillation cocktail was purchased from Packard (Meriden, Conn.) and liquid scintillation counting was performed by a Packard TriCarb Model 1900 TR liquid scintillation analyzer. A custom built AC waveform generator power supply (EM-Tech Electronics, Lindon Utah) was used as the permeabilzation power supply for skin studies. The DC driving force for the skin studies was a 9 V battery (Duracell) combined with a fixed resistor. For scleral studies, there was no permeabilization source needed and all iontophoresis was conducted using a Phoresor PM-800 (Iomed, Inc., Salt Lake City, Utah). Human epidermal membrane was obtained from licensed sources and experiments were conducted under local IRB approval. Scleral tissue was obtained from freshly euthanized rabbit cadavers under local IACUC approval. All water was >18 MΩ prepared by the Milli-Q process. Ionac® MA-3475 (Sybron Chemical, Inc., Birmingham, N.J.) was pre-loaded with sodium salicylate by vigorously stirring the membranes in a 0.15 M sodium salicylate solution spiked with the radiolabel. Loading was considered complete when the DPM counts in the loading solution varied by less than 10% over a 12 hour period. The MA-3475 membranes were assembled in a group of five membranes and placed in the diffusion cell setup.
Scleral transport experiments were conducted using a side-by-side type diffusion cell with an open diffusional area of 0.2 cm^2. The cells were separated by a piece of excised scleral tissue from adult rabbits. The diffusion cells were assembled with the conjunctival side facing the donor compartment.
(§2) The DC iontophoresis driving electrodes were prepared by dipping a silver foil strip into a 1:1 (w/w) mixture of conductive silver paint and finely ground silver chloride. After dipping, the electrodes were hung and allowed to cure at room temperature overnight.
(§3) The receiver compartment was filled with 0.15 M PBS. In each experiment, the donor compartment contained 0.15 M sodium salicylate in water spiked with 25 nCi/ml ^14C-sodium salicylate.
Direct current DC was applied at currents of 0.5, 1, and 2 mA with a Phoresor. Every 30 minutes, the entire volume of the receiver solution was removed, mixed with scintillation cocktail, and analyzed by liquid scintillation counting. All experiments were conducted in triplicate.
The amount of ^14C-salicylate transported across the membrane was plotted as a function of time. Permeabilities were determined from the equations (8) and (9) and plotted and analyzed as in Example 1.

[2] = HEM; for Transference number: 0.5 mA DC
Procedure: as §1
Permeabilized skin transport experiments were conducted using a side-by-side type diffusion cell with an open diffusional area of 0.85 Cm^2. The cells were separated by a piece of dermatomed, heat-separated human epidermal membrane with the stratum corneum facing the donor compartment.
as §2, with “overnight. The AC permeabilizing electrodes were made by mechanically drilling holes into a piece of silver foil and electro-coating the perforated silver foil with AgCl by submersion in a saturated KCl solution and passing a 1 mA current for 10 minutes.” for “overnight.”
as §3
A 1000 Hz AC potential was applied to decrease and maintain the skin resistance to 2 and 0.5 kΩ and a 9 V battery was connected to a fixed resistor in series to yield a direct current of 0.5 mA. Every 30 minutes, the entire volume of the receiver solution was removed, mixed with scintillation cocktail, and analyzed by liquid scintillation counting. All experiments were conducted at least in duplicate.
The amount of ^14C-salicylate transported across the membrane was plotted as a function of time. Permeabilities were determined from the following equations: [formula]
where J is the flux, Q is the amount of solute transported across the membrane, A is the area of the exposed membrane, t is time, P is the permeability, and CD is the concentration of the solute in the donor solution.
Permeabilities were plotted as a function of time and the slope of the best-fit line to the steady state portion of the curve was determined using regression analysis.

SMILES: O=C([O-])c1ccccc1O.[Na+] [Salicylate, sodium salicylate]
- increase of transference number by the permselective membrane [1]: between two- and three-fold
- Salicylate Flux ([1]; DC 0.4 mA, PSM +): 21 ± 0.3 µg/min
- Transference number ([1]; DC 0.4 mA, PSM +): 0.675 ± 0.073
- Salicylate Flux ([1]; DC 0.4 mA, PSM none): 13 ± 0.1 µg/min
- Transference number ([1]; DC 0.4 mA, PSM none): 0.385 ± 0.007
- Salicylate Flux ([1]; DC 1.0 mA, PSM +): 48 ± 1.0 µg/min
- Transference number ([1]; DC 1.0 mA, PSM +): 0.563 ± 0.013
- Salicylate Flux ([1]; DC 1.0 mA, PSM none): 21 ± 0.2 µg/min
- Transference number ([1]; DC 1.0 mA, PSM none): 0.235 ± 0.007
- Salicylate Flux ([1]; DC 2.0 mA, PSM +): 109 ± 7.0 µg/min
- Transference number ([1]; DC 2.0 mA, PSM +): 0.650 ± 0.048
- Salicylate Flux ([1]; DC 2.0 mA, PSM none): 36 ± 2.0 µg/min
- Transference number ([1]; DC 2.0 mA, PSM none): 0.210 ± 0.014
- enhancement of salicylate flux by the permselective membrane ([1]; depending on current level): two- to three-fold
- current carried by the drug ([1]; with permselective membrane): approximately 65%
- Transference number ([2]; AC + DC, 0.5 kΩ, PSM +): 0.32 ± 0.03
- Transference number ([2]; AC + DC, 0.5 kΩ, PSM none): 0.12 ± 0.01
- Transference number ([2]; AC + DC, 2 kΩ, PSM +): 0.16 ± 0.03
- Transference number ([2]; AC + DC, 2 kΩ, PSM none): 0.12 ± 0.01
- Transference number ([2]; DC only, PSM +): 0.18 ± 0.03
- Transference number ([2]; DC only, PSM none): 0.13 ± 0.01
- increase in current carried by the drug due to permselective membrane ([2]; AC permeabilization, target resistance 2 kΩ): about 30%
- current carried by the drug ([2]; AC permeabilization, target resistance 2 kΩ, no permselective membrane): 12%
- current carried by the drug ([2]; AC permeabilization, target resistance 2 kΩ, permselective membrane present): 16%
- gain in current carried by the drug due to permselective material ([2]; purely DC iontophoresis): about 40%
- current carried by the drug ([2]; purely DC iontophoresis, permselective material present): 18%
- current carried by the drug ([2]; purely DC iontophoresis, without permselective material): 13%
- increase in electrical transference efficiency due to permselective membrane ([2]; target resistance 0.5 kΩ): ~300%
- electrical transference efficiency ([2]; target resistance 0.5 kΩ, with permselective membrane): 32%
- electrical transference efficiency ([2]; target resistance 0.5 kΩ, without permselective membrane): 12%

From patent publication US20040167459A1, “Methods and systems for controlling and/or increasing iontophoretic flux” (priority 2003, published 2004)
